Results from patent publication US20050009770A1, “Use of excipients to increase DNA uptake by swine muscle cells” (priority 2002, published 2005).

Tested on: swine muscle cells
Experiment: Excipient testing in pigs: X-gal staining of muscle after IM injection of β galactosidase plasmid DNA with excipient
Format: in vivo
Conditions: excipient combined with plasmid DNA containing a β galactosidase gene; conclusion
Protocol: Solutions of sucrose (3-7%), DMSO (18-22%), Tween 80 (0.03-0.07%), or E. coli recombinant modified labile toxin (rmLT) (23-27 ug/dose) can be formulated at the desired final concentration in 150 mM sodium phosphate, pH 7.2, containing 1 mg/ml of the plasmid DNA of interest. Solutions can be assembled by dissolving the excipients and plasmid DNA in 150 mM sodium phosphate, pH 7.2 at the desired concentration. Alternatively, the preparations can be prepared as sub-solution, at twice their final concentration in 150 mM sodium phosphate, pH 7.2, and then mixed in equal volumes immediately prior to administration. The SEPA-DNA solution is prepared by adding 1 part of the respective DNA solution, at 5 mg/ml, to 4 parts SEPA.
Table 1 contains the scoring results of X-gal staining in swine muscles 5 days following injection of the various DNA and excipients solutions.
Each pig received a total of 6 injections. All injections administered in the longissimus dorsi muscle (3/side). Injections were approximately 2.5″ lateral to the spine. On each side of the pig, one site was located at approximately the last rib, and the two others were at approximately 6″ and 12″ cranial (towards the nose) from the last rib. Hair was clipped in an area approximately 1″ square to aid identification of injection sites. Injections were made in the center of each shaved area, at approximately 90′ angle to the skin surface. The pigs were restrained briefly in a self-locking head catch chute and the test article administered IM using a 1.5″ long 18 gauge needle attached to a 3 ml syringe. Each test article (treatment) was administered in a total of 3 injection sites (each on a different pig). The total volume of each injection was 1 ml.
Pigs were euthanized 5 days following administration of the respective DNA and excipient solution. A section of tissue approximately 1″ cubed, surrounding the point of entry of the needle, was excised. […] The amount of staining was determined by visual observation using a subjective scale from “No Staining” through a gradation to “Yes++++”. […]

Compound | DNA uptake by swine muscle cells, as indicated by tissue staining
OC[C@H]1O[C@@](CO)(O[C@H]2O[C@H](CO)[C@@H](O)[C@H](O)[C@H]2O)[C@@H](O)[C@@H]1O [5% Sucrose, sucrose] | enhanced DNA uptake
C[S+](C)[O-] [20% Dimethyl sulfoxide, dimethyl sulfoxide] | enhanced DNA uptake
CCCCCCCCCC1OCCO1 [SEPA solution, 2-n-Nonyl-1,3-dioxolane] | enhanced DNA uptake
